Reference: patent publication US12521441B2, “Modified IL-2 polypeptides and uses thereof” (Bright Peak Therapeutics AG, priority 2020, dated 2026)

Experiments:
[1] = target: T1, alpha/beta heterodimer IL2 receptor (Homo sapiens, UniProt P14784); experiment: Surface plasmon resonance binding to IL2R alpha/beta heterodimer
T1 construct: purchased Abcam Ab221397; Ab174003
T1 sequence (P14784 27-239 limits assumed): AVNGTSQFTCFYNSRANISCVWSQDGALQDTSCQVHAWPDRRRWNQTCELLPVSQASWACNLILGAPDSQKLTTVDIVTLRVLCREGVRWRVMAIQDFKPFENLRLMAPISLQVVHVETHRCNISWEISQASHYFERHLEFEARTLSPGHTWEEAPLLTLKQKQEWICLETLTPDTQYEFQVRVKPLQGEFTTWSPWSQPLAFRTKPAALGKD
Method: (§1) The interaction of the IL-2 polypeptides with human IL-2 receptor subunits were measured with Surface Plasmon Resonance (SPR) technology at Crelux, a Wuxi AppTec company, Martinsried, GER. For these studies, anti-His antibodies were bound by amine coupling onto a CMS chip to capture 42 nM of His tagged human IL2 receptor alpha (Abcam, Ab221397) or of His tagged human IL2 receptor beta (Abcam, Ab174003). In other settings, 42 nM of alpha and beta IL2 receptors were mixed and pre-incubated for 30 min before capture of the alpha/beta heterodimer IL2 receptor.
(§2) Regeneration of the surface back to amine coupled anti His antibody was done after every concentration of analyte. To measure the protein association to the receptors, the samples were injected with a flow rate of 50 ul/min for 30 s, followed by 180s buffer only to detect the dissociation. The used running buffer was 1×PBS with 0.05% Tween20. The relative response units (RU, Y-axis) are plotted against time (s, X-axis) and analyzed in a kinetic 1:1 binding model for the monomer receptor binding and with a kinetic heterogenous ligand fit model for the alpha/beta heterodimer binding.
Additional surface plasmon resonance experiments were performed to determine the binding characteristics of the modified IL-2 polypeptides with IL2R alpha/beta heterodimers. The experiments were performed as indicated above, but the monomeric subunits were replaced with the IL2R heterodimers. […] In the table below, NT indicates the composition was not tested.
The secondary interactions between IL-2R heterodimers and the modified IL-2 polypeptides were also measured. […] In the table below, NT indicates the composition was not tested.

[2] = target: T2, human IL2 receptor alpha (CD25) (Homo sapiens, UniProt P01589); experiment: Surface plasmon resonance binding to IL-2R alpha monomer subunit; conditions: SPR
T2 construct: purchased Abcam Ab221397
T2 sequence (P01589 22-272): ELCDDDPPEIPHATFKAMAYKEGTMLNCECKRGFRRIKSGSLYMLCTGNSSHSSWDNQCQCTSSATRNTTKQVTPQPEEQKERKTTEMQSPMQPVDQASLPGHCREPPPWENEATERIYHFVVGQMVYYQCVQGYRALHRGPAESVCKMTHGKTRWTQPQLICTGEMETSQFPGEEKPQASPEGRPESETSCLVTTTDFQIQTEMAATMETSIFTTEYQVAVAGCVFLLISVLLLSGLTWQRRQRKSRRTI
Method: as §1, §2
NT indicates the IL-2 polypeptide as not tested.

[3] = mouse, in vivo, iv, 0.8 mg/kg
Method: A single-dose pharmacokinetic/pharmacodynamic experiment was performed in mice. Naïve, 6-8 weeks old, C57Bl/6 mice (Shanghai SLAC Laboratory Animal Co., LTD, Shanghai, China) received a single bolus intravenous (i.v.) injection of 52 nmoles/kg wild type or of modified IL-2 polypeptides. […] At indicated time points, blood samples were collected in the presence of EDTA either via tail vein sampling or via cardiac puncture (end-point).
Blood samples were immediately processed by centrifugation. Plasma samples were cryopreserved at −80° C. until bioanalysis.
Bioanalysis of plasma samples was performed using a qualified human IL-2 LegendPlex bead assay (Biolegend, #740717, #740368, #740758). Concentrations of wild type and of modified IL-2 polypeptides and the internal standard in samples derived from plasma were determined using human IL-2 LegendPlex bead assay. PK data were subjected to a non-compartmental pharmacokinetic analysis by using the Phoenix WinNonlin software (version 6.3, Pharsight, Mountain View, CA). The linear/log trapezoidal rule was applied in obtaining the PK parameters.
The PK parameters were determined by means of non-compartmental analysis (NCA) using R package “PK”. The area under plasma concentration-time curves (AUC0-last) were calculated using the linear trapezoidal rule on the arithmetic means at the different time points while the extrapolation necessary for the AUC0-inf and AUMC 0-Inf was achieved assuming an exponential decay on the last 3 time points.

[4] = system: CD8+ Teff (CD3+, CD8+); experiment: Single-dose pharmacodynamics in mice, CD8+ Teff (pSTAT5, Ki67, frequency); assay type: in vivo, C57Bl/6 mice; conditions: for CD8+ % of pSTAT5 positive cells: 1 h after injection
Method: (§3) Cell pellets were treated with 1×Lyse/Fix buffer (BD Bioscience, 558050) during 10 min. […] Cells were then permeabilized using cold BD Perm Buffer III and stained with antibodies against either Ki67, Siglec-F, CD4, CD8, FoxP3, CD62L, CD44 or pSTAT5. The FACS (fluorescence activated cell sorting) measurement was done with a Fortessa X-20 Flow Cytometer from BD. For each cell subset indicated below in Table 14, the percentage of pSTAT5 positive cells, and percentage of Ki67 positive cells, cell counts, and cell frequency was determined. [table]

[5] = system: CD8 Teff cells (CD8+); experiment: pStat5 induction in human primary pan T-cells, CD8 Teff subset; assay type: cell-based
Method: (§4) An experiment was performed to determine the effect of various IL-2 polypeptides on human T-cell populations. Primary pan T-cells (CD4+, CD8+ and Tregs T cells) were obtained from healthy donor buffy coat by peripheral blood mononuclear cell (PBMC) purification using ficoll gradient centrifugation followed by negative selection with magnetic beads and then cryopreserved until use. […] After incubation, cells were fixed and permeabilized using the Transcription Factor Phospho Buffer kit followed by a surface and intracellular immunostaining for CD4, CD8, CD25, FoxP3, CD45RA and pStat5 to enable cell subset identification and measurement of Stat5 (signal transducer and activator of transcription 5) phosphorylation levels. The FACS (fluorescence activated cell sorting) measurement was done either with a NovoCyte or a Quanteon Flow Cytometer from Acea.
(§5) pStat5 MFI ([…] fluorescence intensity) signals for the T-cell subsets shown in Table 12 were plotted against concentrations of aldesleukin or of modified IL-2 polypeptides. Half maximal effective concentration (EC50) was calculated based on a variable slope, four parameter analysis using GraphPad PRISM software.

[6] = system: Treg cells (CD4+, CD25Hi, FoxP3+); experiment: pStat5 induction in human primary pan T-cells, T-Reg subset; assay type: cell-based
Method: as §4, §5

[7] = target: T3, human IL2 receptor beta (CD122) (Homo sapiens, UniProt P14784); experiment: Surface plasmon resonance binding to IL-2R beta monomer subunit; conditions: SPR
T3 construct: purchased Abcam Ab174003
T3 sequence (P14784 27-551): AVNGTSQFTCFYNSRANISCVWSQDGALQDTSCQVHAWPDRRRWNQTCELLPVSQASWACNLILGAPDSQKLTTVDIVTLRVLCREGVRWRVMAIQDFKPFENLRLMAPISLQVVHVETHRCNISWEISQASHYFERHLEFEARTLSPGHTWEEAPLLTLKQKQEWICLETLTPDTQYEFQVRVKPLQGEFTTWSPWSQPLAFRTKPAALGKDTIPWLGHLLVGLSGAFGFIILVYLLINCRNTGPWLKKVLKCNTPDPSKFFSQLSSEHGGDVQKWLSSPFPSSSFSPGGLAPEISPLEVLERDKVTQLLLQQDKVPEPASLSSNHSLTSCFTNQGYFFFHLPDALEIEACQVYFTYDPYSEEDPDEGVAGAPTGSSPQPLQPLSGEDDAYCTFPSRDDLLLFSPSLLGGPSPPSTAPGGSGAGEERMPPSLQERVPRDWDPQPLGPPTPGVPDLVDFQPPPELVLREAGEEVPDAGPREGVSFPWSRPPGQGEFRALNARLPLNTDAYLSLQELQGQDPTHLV
Method: as §1, §2
NT indicates the IL-2 polypeptide was not tested.

[8] = system: Tregs (CD4+, FoxP3+, CD25Hi); experiment: Single-dose pharmacodynamics in mice, Tregs (pSTAT5, Ki67, frequency); assay type: in vivo, C57Bl/6 mice; conditions: for Tregs % of pSTAT5 positive cells / Ratio Tregs/CD8+: 1 h after injection; for Ratio Tregs/CD8+: pSTAT5 positive cells
Method: as §3

[9] = mice, 0.8 mg/kg, at peak time point

Aldesleukin: aldesleukin (SEQ ID NO: 2), comparator IL-2
Ka ([1]; primary interaction): 8.01e+06 M⁻¹ s⁻¹
dissociation rate constant (koff, 1/s) ([1]; primary interaction): 0.00175 s⁻¹
Ka ([1]; secondary interaction): 5.13e+06 M⁻¹ s⁻¹
Ka ([2]; Alpha (CD25) monomer): 6.74e+06 M⁻¹ s⁻¹
dissociation rate constant (koff) ([2]; Alpha (CD25) monomer): 0.154 s⁻¹
Kd ([2]; read-out: observed Kd with IL-2Rα): 23 nM
AUC0-last [3]: 1227 ng·h/mL
AUCD [3]: 1534 (ng/mL*h)*(mg/kg)
Cl [3]: 10.85 mL/min/kg
MRTlast [3]: 36.6 min
T1/2 [3]: 20.8 min
CD8+ % of CD8+ within CD3+ ([4]; 0.8 mg/kg, at peak time point): 32.1 ± 3^ %
CD8+ % of Ki67+ positive cells ([4]; 0.8 mg/kg, at peak time point): 19.6 ± 3^ %
CD8+ % of pSTAT5 positive cells ([4]; 0.01 mg/kg): 21.3 ± 6.7%
CD8+ % of pSTAT5 positive cells ([4]; 0.03 mg/kg): 31.3 ± 6.2%
CD8+ % of pSTAT5 positive cells ([4]; 0.1 mg/kg): 29.6 ± 4.4%
CD8+ % of pSTAT5 positive cells ([4]; 0.3 mg/kg): 63.2 ± 9.0%
CD8+ % of pSTAT5 positive cells ([4]; 0.8 mg/kg): 74.1 ± 11%
Timepoint at Peak Teff ([4]; Ki67+ cells, 0.8 mg/kg): 48 h
Timepoint at Peak Teff ([4]; frequency within CD3+, 0.8 mg/kg): 36 h
EC50 ([5]; pStat5 MFI, 20 min to 40 min stimulation): 9.07 nM
CD8/Tregs ([5]; ratio of CD8+ EC50 to Tregs EC50): 477
EC50 ([6]; pStat5 MFI, 20 min to 40 min stimulation, read-out: Tregs EC50): 0.019 nM
potency in inducing Treg cells versus Teff cells (in words) ([6]; pStat5 dose response curves): substantially more potent in inducing Treg cells than Teff cells
Ka ([7]; Beta (CD122) monomer): 319000 M⁻¹ s⁻¹
koff (dissociation rate constant) ([7]; Beta (CD122) monomer): 0.289 s⁻¹
Kd ([7]; as stated in text (FIG. 3), read-out: Kd, β subunit of the IL-2 receptor): ~900 nM
Timepoint at Peak Tregs ([8]; Ki67+ cells, mice, 0.8 mg/kg): 20 h
Timepoint at Peak Tregs ([8]; frequency within CD3+, mice, 0.8 mg/kg): 20 h
Tregs % of Ki67+ positive cells [8, 9]: 28.3 ± 3.7%
Tregs % of Tregs within CD3+ [8, 9]: 3.52 ± 0.4%
Tregs % of pSTAT5 positive cells ([8]; mice, 0.01 mg/kg): 81.0 ± 5.8%
Tregs % of pSTAT5 positive cells ([8]; mice, 0.03 mg/kg): 86.9 ± 5.2%
Tregs % of pSTAT5 positive cells ([8]; mice, 0.1 mg/kg): 91.1 ± 2.9%
Tregs % of pSTAT5 positive cells ([8]; mice, 0.3 mg/kg): 96.2 ± 1.3%
Tregs % of pSTAT5 positive cells ([8]; mice, 0.8 mg/kg): 93.3 ± 3.8%
Ratio Tregs/CD8+ ([8]; 0.01 mg/kg): 3.8
Ratio Tregs/CD8+ ([8]; 0.03 mg/kg): 2.8
Ratio Tregs/CD8+ ([8]; 0.1 mg/kg): 3.1
Ratio Tregs/CD8+ ([8]; 0.3 mg/kg): 1.5
Ratio Tregs/CD8+ ([8]; 0.8 mg/kg): 1.3
